Columns and labels:
[1] = system: Mus musculus; assay: AUC in mouse assessed as GW-7604 at 100 mg/kg, po; assay type: ADME, organism-based; settings: in vivo
[2] = AUC in mouse at 100 mg/kg, po; assay type: ADME, organism-based; settings: in vivo
[3] = Half life in phosphate buffer at pH 7.4 at 37 degC; assay type: physicochemical
[4] = AUC in mouse at 10 mg/kg, po; assay type: ADME, organism-based; settings: in vivo
[5] = Drug uptake in CD-IGS rat at 1 mg/kg, po administered for 3 days measured at 24 hrs post last dose; assay type: ADME, organism-based; settings: in vivo, read-out: Drug uptake
[6] = Drug uptake in CD-IGS rat at 1 mg/kg, po administered for 3 days measured at 6 hrs post last dose; assay type: ADME, organism-based; settings: in vivo, read-out: Drug uptake
[7] = Drug level in microsomes (unknown origin) treated with (E)-3-(4-((E)-2-(2-chloro-4-fluorophenyl)-1-(1H-indazol-5-yl)but-1-enyl)phenyl)acrylic acid; assay type: ADME, Microsome
[8] = AUC in 17-beta estradiol pellets supplemented nu/nu mouse xenografted with tamoxifen-resistant human MCF7 cells at 100 mg/kg/day, po administered for 4 weeks measured on day 28; assay type: ADME, organism-based; settings: in vivo
[9] = Half life in cynomolgus monkey at 3 mg/kg, iv; assay type: ADME, organism-based, Macaca fascicularis; settings: in vivo
[10] = Half life in mouse at 3 mg/kg, iv; assay type: ADME, organism-based; settings: in vivo
[11] = Drug metabolism in microsomes (unknown origin) assessed as formation of (2S,3S,4R,5R,6S)-6-((E)-3-(4-((E)-2-(2-chloro-4-fluorophenyl)-1-(1H-indazol-5-yl)but-1-enyl)phenyl)acryloyloxy)-3,4,5-trihydroxytetrahydro-2H-pyran-2-carboxylic acid; assay type: ADME, Microsome
[12] = AUC in 17-beta estradiol pellets supplemented nu/nu mouse xenografted with tamoxifen-resistant human MCF7 cells at 30 mg/kg/day, po administered for 4 weeks measured on day 28; assay type: ADME, organism-based; settings: in vivo
[13] = Clearance in rat at 3 mg/kg, iv and 10 mg/kg, po; assay type: ADME, organism-based; settings: in vivo
[14] = Volume of distribution at steady state in dog at 3 mg/kg, iv and 10 mg/kg, po; assay type: ADME, organism-based, Canis lupus familiaris; settings: in vivo, read-out: Vdss
[15] = Cmax in dog at 10 mg/kg, po; assay type: ADME, organism-based, Canis lupus familiaris; set-up: dose 10 mg/kg, route oral; settings: in vivo
[16] = Oral bioavailability in rat at 10 mg/kg; assay type: ADME, organism-based; settings: in vivo
[17] = Oral bioavailability in cynomolgus monkey at 10 mg/kg; assay type: ADME, organism-based, Macaca fascicularis; settings: in vivo
[18] = Volume of distribution at steady state in cynomolgus monkey at 3 mg/kg, iv and 10 mg/kg, po; assay type: ADME, organism-based, Macaca fascicularis; settings: in vivo, read-out: Vdss
[19] = Oral bioavailability in dog at 10 mg/kg; assay type: ADME, organism-based, Canis lupus familiaris; settings: in vivo
[20] = Volume of distribution at steady state in mouse at 3 mg/kg, iv and 10 mg/kg, po; assay type: ADME, organism-based; settings: in vivo, read-out: Vdss
[21] = Volume of distribution at steady state in rat at 3 mg/kg, iv and 10 mg/kg, po; assay type: ADME, organism-based; settings: in vivo, read-out: Vdss
[22] = Half life in rat at 3 mg/kg, iv; assay type: ADME, organism-based; settings: in vivo
[23] = Cmax in rat at 10 mg/kg, po; assay type: ADME, organism-based; set-up: dose 10 mg/kg, route oral; settings: in vivo
[24] = Clearance in dog at 3 mg/kg, iv and 10 mg/kg, po; assay type: ADME, organism-based, Canis lupus familiaris; settings: in vivo
[25] = AUC in dog at 10 mg/kg, po; assay type: ADME, organism-based, Canis lupus familiaris; settings: in vivo
[26] = Half life in dog at 3 mg/kg, iv; assay type: ADME, organism-based, Canis lupus familiaris; settings: in vivo
[27] = Cmax in mouse at 10 mg/kg, po; assay type: ADME, organism-based; set-up: dose 10 mg/kg, route oral; settings: in vivo
[28] = Cmax in cynomolgus monkey at 10 mg/kg, po; assay type: ADME, organism-based, Macaca fascicularis; set-up: dose 10 mg/kg, route oral; settings: in vivo
[29] = in vivo; settings: mouse, iv, 3 mg/kg
[30] = AUC in cynomolgus monkey at 10 mg/kg, po; assay type: ADME, organism-based, Macaca fascicularis; settings: in vivo
[31] = Clearance in cynomolgus monkey at 3 mg/kg, iv and 10 mg/kg, po; assay type: ADME, organism-based, Macaca fascicularis; settings: in vivo
[32] = AUC in rat at 10 mg/kg, po; assay type: ADME, organism-based; settings: in vivo
[33] = AUC in 17-beta estradiol pellets supplemented nu/nu mouse xenografted with tamoxifen-resistant human MCF7 cells at 200 mg/kg, sc administered 3 times per week for 4 weeks measured on day 28; assay type: ADME, organism-based; settings: in vivo

CC/C(=C(\c1ccc(O)cc1)c1ccc(/C=C/C(=O)O)cc1)c1ccccc1
AUC [1]: 13000 ng·h/mL

CC/C(=C(\c1ccccc1)c1ccc(/C=C/C(=O)O)cc1)c1ccccc1
AUC [2]: 137000 ng·h/mL

O=C(Cc1ccccc1Nc1c(Cl)cccc1Cl)O[C@@H]1O[C@H](C(=O)O)[C@@H](O)[C@H](O)[C@H]1O
half-life [3]: 0.9 h

CC/C(=C(/c1ccc(/C=C/C(=O)O)cc1)c1cccc2[nH]ncc12)c1ccccc1
AUC [4]: 2800 ng·h/mL | concentration at 24 h [5]: 0.1 nM

CC/C(=C(/c1ccc(/C=C/C(=O)O)cc1)c1ccc2[nH]c(=O)oc2c1)c1ccccc1
AUC [4]: 3000 ng·h/mL | concentration at 24 h [5]: 0.2 nM

CC/C(=C(/c1ccc(/C=C/C(=O)O)cc1)c1ccc2[nH]ccc2c1)c1ccccc1
AUC [4]: 9400 ng·h/mL

CC/C(=C(/c1ccc(/C=C/C(=O)O)cc1)c1ccc2[nH]nnc2c1)c1ccccc1
AUC [4]: 2300 ng·h/mL

CC/C(=C(/c1ccc(/C=C/C(=O)O)cc1)c1ccc2[nH]ncc2c1)c1ccccc1
AUC [2]: 240000 ng·h/mL | AUC [4]: 5800 ng·h/mL | concentration at 24 h [5]: 3.8 nM

CC/C(=C(/c1ccc(/C=C/C(=O)O)cc1)c1ccc2[nH]ncc2c1)c1ccncc1C
AUC [4]: 81 ng·h/mL | concentration at 24 h [5]: 7.6 nM

CC/C(=C(/c1ccc(/C=C/C(=O)O)cc1)c1ccc2[nH]ncc2c1)c1ccncc1Cl
AUC [4]: 110 ng·h/mL | concentration at 24 h [5]: 0.5 nM

CC/C(=C(/c1ccc(/C=C/C(=O)O)cc1)c1ccc2[nH]ncc2c1)c1cscc1C
AUC [4]: 3800 ng·h/mL | concentration at 24 h [5]: 10 nM

CC/C(=C(/c1ccc(/C=C/C(=O)O)cc1)c1ccc2[nH]ncc2c1)c1ccccc1Cl
AUC [4]: 15000 ng·h/mL | concentration at 24 h [5]: 3.7 nM

CC/C(=C(/c1ccc(/C=C/C(=O)O)cc1)c1ccc2[nH]ncc2c1)c1cccc(Cl)c1
AUC [4]: 11000 ng·h/mL | concentration at 24 h [5]: 11 nM

CC/C(=C(/c1ccc(/C=C/C(=O)O)cc1)c1ccc2[nH]ncc2c1)c1ccccc1C#N
AUC [4]: 200 ng·h/mL

CC/C(=C(/c1ccc(/C=C/C(=O)O)cc1)c1ccc2[nH]ncc2c1)c1ccccc1C
AUC [4]: 7200 ng·h/mL | concentration at 24 h [5]: 1.7 nM

CC/C(=C(/c1ccc(/C=C/C(=O)O)cc1)c1ccc2[nH]ncc2c1)c1ccc(C#N)cc1C
concentration at 6 h [6]: 14 nM | AUC [4]: 4300 ng·h/mL

CC/C(=C(/c1ccc(/C=C/C(=O)O)cc1)c1ccc2[nH]ncc2c1)c1ccc(C#N)cc1Cl
concentration at 6 h [6]: 10 nM | AUC [4]: 2900 ng·h/mL

CC/C(=C(/c1ccc(/C=C/C(=O)O[C@@H]2O[C@H](C(=O)O)[C@@H](O)[C@H](O)[C@H]2O)cc1)c1ccc2[nH]ncc2c1)c1ccc(F)cc1Cl
Drug metabolism [7]: metabolite_detected | half-life [3]: 8.1 h

COc1ccc(-c2sc3cc(O)ccc3c2Oc2ccc(OCCN3CCCCC3)cc2)cc1 [ARZOXIFENE]
AUC at 672 h [8]: 50000 ng·h/mL

CC/C(=C(/c1ccc(/C=C/C(=O)O)cc1)c1ccc2[nH]ncc2c1)c1ccc(F)cc1Cl [BRILANESTRANT]
half-life [9]: 13 h | half-life [10]: 4.2 h | Drug metabolism [11]: metabolite_detected | AUC at 672 h [12]: 21000 ng·h/mL | clearance [13]: 14 mL/min/kg | Vd [14]: 0.2 L/kg | Cmax [15]: 20000 ng/mL | AUC [4]: 8800 ng·h/mL | bioavailability [16]: 49% | bioavailability [17]: 42% | Vd [18]: 0.5 L/kg | bioavailability [19]: 61% | Vd [20]: 1.2 L/kg | Vd [21]: 1.9 L/kg | half-life [22]: 3.9 h | Cmax [23]: 1800 ng/mL | clearance [24]: 1.6 mL/min/kg | AUC [25]: 69000 ng·h/mL | half-life [26]: 11 h | Cmax [27]: 4400 ng/mL | AUC at 672 h [8]: 45000 ng·h/mL | concentration at 24 h [5]: 5.2 nM | Cmax [28]: 6100 ng/mL | clearance [29]: 11 mL/min/kg | AUC [30]: 10000 ng·h/mL | clearance [31]: 7 mL/min/kg | AUC [32]: 5800 ng·h/mL

C[C@]12CC[C@@H]3c4ccc(O)cc4C[C@@H](CCCCCCCCC[S+]([O-])CCCC(F)(F)C(F)(F)F)[C@H]3[C@@H]1CC[C@@H]2O (stereo partly specified) [FULVESTRANT]
AUC at 672 h [33]: 11000 ng·h/mL

Cc1c(-c2ccc(O)cc2)n(Cc2ccc(OCCN3CCCCC3)cc2)c2ccc(O)cc12 [PIPENDOXIFENE]
AUC at 672 h [8]: 7000 ng·h/mL

Source: ChEMBL document CHEMBL3580562 (J Med Chem, 2015)
